Measurements from patent US12172988B2, “Anticancer and antifungal splice modulators” (priority 2021, dated 2024).

Key:
PLK-1 = assay: qPCR splicing analysis, PLK-1 exon skipping / RNA expression; format: cell-based, human; settings: HCT116, 4 h, 20 times GI50, qPCR
Description: (§1) HCT116 tumor cells were treated with each analogue at 20 times the G150 value (Table 12) for 4 hours and then cellular RNA was isolated and purified for qPCR. Primers were designed to evaluate intron retention or exon skipping, direct responses to splice modulator treatment. Genes evaluated included those involved in splicing regulation (SF3A1, SF3A3, SF3B1, SF3B2), apoptosis (MCL-1L), protein folding (DNAJB1), and cell cycle regulation (AURKA, PLK-1) relative to the unspliced control GAPDH. For alternative splicing regulator (SF2), primers were designed to evaluate gene expression, which changes in response splice modulator treatment for SF2 relative to the unspliced control GAPDH. (−) denotes untreated cells.
(§2) Next, we turned our efforts to explore the ability of these analogues to modulate splicing. […] We treated cells for 4 h so that we could evaluate early changes in splicing activity, and then cellular RNA was isolated and purified for analyses by qPCR (FIG. 14). Most importantly, none of the concentrations tested led to significant changes in cell viability, ensuring that changes in gene expression were not due to cell death.
(§3) For these studies, we evaluated the expression of genes involved in splicing regulation (SF3A1, SF3A3, SF3B1, SF3B2), apoptosis (MCL-1L), protein folding (DNAJB1), and cell cycle regulation (AURKA, PLK-1) relative to the unspliced control GAPDH. Primers were designed to evaluate intron retention or exon skipping, direct responses to splice modulator treatment. The master splicing regulator alternative splicing factor (SF2) was also evaluated, with the primers for this gene designed to evaluate overall gene expression, which changes in response to splice modulator treatment.
(§4) From this 4 h study (FIG. 14), a small set of analogs (1, 1b, 1g, 1d, 1e, 1i and 1j) were selected to evaluate if effects on splicing when presented for a longer 24 h period. […] Using identical procedures as that used for 4 h, HCT116 cells were treated with three concentrations (100 nM, 250 nM and 500 nM) of each analog for 24 h. Multiple concentrations were used as a means to check further validate the use of the GI50 concentration in our prior study (FIG. 14). As before, none of the concentrations tested led to significant changes in cell viability over the 24-hour time window, ensuring that changes in gene expression were not due to cell death.
Cells were treated with 1 or 1a-1j in media (McCoy's 5a (Life Technologies) supplemented with 10% FBS, 2 mM L-glutamine, and 100 U mL^−1 of penicillin and 100 μg mL^−1 of streptomycin 0.5% DMSO) for 4 h or 24 h. Untreated cells were considered were used as negative control. Total RNA was isolated using mirVana miRNA isolation kit (Life Technologies). A 1 μg sample of RNA was subjected to DNAseI from a TURBO DNA free kit (Life Technologies). […] The amount of unspliced RNA for different genes was determined using Power SYBR Green PCR master mix (Applied Biosystems) by qPCR using specific primers for each gene. qPCR using 2.5 μM of each primer was performed on 5 ng of the obtained cDNA. qPCR conditions were as follows: 95° C. for 10 min for one cycle, then 95° C. for 10 min for one cycle, then 95° C. for 30 s, 55° C. for 60 s, 72° C. for 60 s, for 40 cycles using the MXPro. Quantification cycle (Cq) values were identified for each sample, and then RNA levels were calculated using 2-ΔΔCT method. […] Namely, all genes explored in this study were evaluated from the same cell cultures. […]

HCT116 tumor cells = assay: qPCR structure-splicing profile over the gene panel; format: cell-based, human; settings: HCT116, 24 h, 100, 250, 500 nM, compared to 1
Description: as §1, with “analogues” for “each analogue”, “100 nM (light grey), 250 nM (grey), or 500 nM (black)” for “20 times the G150 value (Table 12)”, “24 h” for “4 hours”, “(MCL-1L), and” for “(MCL-1L),”, “(DNAJB1),” for “(DNAJB1), and cell cycle regulation (AURKA, PLK-1)”, “(—)” for “(−)”
as §3, §4
(§5) Cells were treated with 1 or 1a-1j in media (McCoy's 5a (Life Technologies) supplemented with 10% FBS, 2 mM L-glutamine, and 100 U mL^−1 of penicillin and 100 μg mL^−1 of streptomycin 0.5% DMSO) for 4 h or 24 h. Untreated cells were considered were used as negative control. Total RNA was isolated using mirVana miRNA isolation kit (Life Technologies). A 1 μg sample of RNA was subjected to DNAseI from a TURBO DNA free kit (Life Technologies). The cDNA was prepared by using SuperScript III reverse transcriptase kit (Life Technologies). The amount of unspliced RNA for different genes was determined using Power SYBR Green PCR master mix (Applied Biosystems) by qPCR using specific primers for each gene. qPCR using 2.5 μM of each primer was performed on 5 ng of the obtained cDNA. qPCR conditions were as follows: 95° C. for 10 min for one cycle, then 95° C. for 10 min for one cycle, then 95° C. for 30 s, 55° C. for 60 s, 72° C. for 60 s, for 40 cycles using the MXPro. Quantification cycle (Cq) values were identified for each sample, and then RNA levels were calculated using 2-ΔΔCT method. GAPDH was used as a control for normalization. At least three replicates were conducted for each compound. Namely, all genes explored in this study were evaluated from the same cell cultures. Here, individual cultures were used for each compound explored and at least three replicates were used for each compound. While experimental variation occurred between the different compound treatments, the levels of the different intron retention, exon skipping or RNA expression were collected from the same cellular material. Statistics were calculated using a standard one-way ANOVA; p values were represented so that * signifies p<0.0001. HCT116 were treated with analogs 1-1j ranging from 0.1-5000 nM for 72 hours, then cell viability was measured using the MTS assay. GI50 values and confidence intervals were calculated using GraphPad (Table 12).

[1] = system: HCT116 colorectal carcinoma cells; assay: MTS cell viability / cell growth inhibition assay; format: cell-based, human; settings: HCT-116 cells
Description: With milligram quantities of 1a-1i at hand, we began our studies to evaluate the relative efficacy of each analogue using cell growth inhibition studies in HCT116 colorectal carcinoma cells. As reported in FIG. 3, GI50 values were collected for each analog after a 72 h treatment using the MTS cell viability assay (Table 12). Under these conditions, the natural FD-895 (1), 3S-FD-895 (1a) 17S-FD-895 (1d), 17-methoxy-FD-895 (1e) provided activities of <10 nM.
HCT-116 cells was cultured in McCoy's 5a (Life Technologies) supplemented with 10% fetal bovine serum (FBS), 2 mM L-glutamine, and 100 U mL^−1 of penicillin and 100 μg mL^−1 of streptomycin at 37° C. in an atmosphere of 5% CO2. Compounds were dissolved in DMSO (MilliporeSigma). Cells were treated with 1-1j in media with ≥0.5% DMSO for 4-72 h.
Studies were conducted in […] cell culture plates. HCT-116 plated at 5×10^3 cells/well were cultured for 24 h and then treated with analogs 1-1j for 4-72 h, then washed twice with 100 μL PBS. PBS (100 μL) was added to each well, followed by 20 μL of CellTiter Aqueous One Solution (Promega). After 2 h at 37° C., absorbance readings were taken at 490 nm (test wavelength) and 690 nm (reference wavelength). GI50 values were calculated in Prism (GraphPad) using greater 3 replicates.
as §5

SF2 = assay: qPCR gene expression of alternative splicing factor SF2; format: cell-based, human; settings: HCT116, 4 h, 20 times GI50, qPCR
Description: as §1
as §1, with “analogues” for “each analogue”, “100 nM (light grey), 250 nM (grey), or 500 nM (black)” for “20 times the G150 value (Table 12)”, “24 h” for “4 hours”, “(MCL-1L), and” for “(MCL-1L),”, “(DNAJB1),” for “(DNAJB1), and cell cycle regulation (AURKA, PLK-1)”, “(—)” for “(−)”
as §2, §3
From this 4 h study (FIG. 14), a small set of analogs (1, 1b, 1g, 1d, 1e, 1i and 1j) were selected to evaluate if effects on splicing when presented for a longer 24 h period. […] Using identical procedures as that used for 4 h, HCT116 cells were treated with three concentrations (100 nM, 250 nM and 500 nM) of each analog for 24 h. […]

[2] = estimated, based on E7107; cited from earlier work

For `CCC(OC)C(C)C1OC1C(O)C(C)/C=C/C=C(\C)C1OC(=O)CC(O)CCC(C)(O)C(OC(C)=O)/C=C/C1C` (centres unmarked) [Analog 1, FD-895, reference compound], the “effect on exon 3 inclusion in PLK-1” value (PLK-1) was “most potent effect”, the “splicing activity over the genes tested” value (HCT116 tumor cells) was “altered the splicing of many of the genes tested” and the “cell growth inhibitory activity compared to FD-895” value [1] was “potent cell growth inhibitor”. The “down regulating the expression of SF2 RNA” value (SF2) was “highest efficacy” and the “human maximum tolerated dose (MTD)” value [2] was 4 mg/m^2.
